Test results: patent US9593107B2, “Dihydroquinoline-2-one derivatives” (Hoffmann-La Roche Inc., priority 2014, dated 2017)

Tests used:
human CYP11B1 = molecular target: T1, human CYP11B1 (Homo sapiens, UniProt P15538); test: G-402 cellular enzyme assay, human CYP11B1 (cortisol release, HTRF); assay type: cell-based; settings: G-402 cells expressing human CYP11B1; 1 μM Deoxycortisol
T1 construct: expressed in transfected cells
T1 sequence (P15538 25-503): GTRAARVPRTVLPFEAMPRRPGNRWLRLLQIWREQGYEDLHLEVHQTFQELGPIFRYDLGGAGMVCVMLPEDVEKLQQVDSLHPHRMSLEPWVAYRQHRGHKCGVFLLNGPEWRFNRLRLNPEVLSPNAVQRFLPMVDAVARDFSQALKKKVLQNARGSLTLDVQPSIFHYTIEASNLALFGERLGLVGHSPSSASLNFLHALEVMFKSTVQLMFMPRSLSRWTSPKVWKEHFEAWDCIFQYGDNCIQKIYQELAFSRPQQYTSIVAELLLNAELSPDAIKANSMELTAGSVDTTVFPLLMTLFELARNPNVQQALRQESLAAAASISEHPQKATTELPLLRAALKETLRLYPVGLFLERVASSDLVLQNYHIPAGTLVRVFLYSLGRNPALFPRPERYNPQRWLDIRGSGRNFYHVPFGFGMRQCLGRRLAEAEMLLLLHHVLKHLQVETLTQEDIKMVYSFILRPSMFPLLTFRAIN
Description: (§1) Herein we identified the use of the G-402 cell line as a host cell to ectopically express (transiently or stably) enzymes of the CYP11 family. Specifically we developed stable G-402 cells expressing ectopically human CYP11B1, human CYP11B2, human CYP11A1, cynmolgus CYP11B1 or cynomolgus CYP11B2 enzyme activity. Importantly the identified cell line G-402 expresses co-factors (adrenodoxin and adrenodoxin reductase) important for the activity of the CYP11 family and no relevant enzyme activity of the CYP11 family (in comparison to H295R cells) was detected in these cells. Therefore the G-402 cell line is uniquely suited as a host cell for the ectopic expression of enzymes from the CYP11 family.
(§2) The expression plasmids contains the ORF for either human/cyno CYP11B1 or CYP11B2 under the control of a suitable promoter (CMV-promoter) and a suitable resistance marker (neomycin). Using standard techniques the expression plasmid is transfected into G-402 cells and these cells are then selected for expressing the given resistance markers. Individual cell-clones are then selected and assessed for displaying the desired enzymatic activity using 11-Deoxycorticosterone (Cyp11B2) or 11-Deoxycortisol (Cyp11B1) as a substrate.
(§3) G-402 cells expressing CYP11 constructs were established as described above and maintained in McCoy's 5a Medium Modified, ATCC Catalog No. 30-2007 containing 10% FCS and 400 μg/ml G418 (Geneticin) at 37° C. under an atmosphere of 5% CO2/95% air.
(§4) Cellular enzyme assays were performed in DMEM/F12 medium containing 2.5% charcoal treated FCS and appropriate concentration of substrate (0.3-10 uM 11-Deoxycorticosterone, 11-Deoxycortisol or Corticosterone). For assaying enzymatic activity, cells were plated onto 96 well plates and incubated for 16 h. An aliquot of the supernatant is then transferred and analyzed for the concentration of the expected product (Aldosterone for CYP11B2; Cortisol for CYP11B1). The concentrations of these steroids can be determined using HTRF assays from CisBio analyzing either Aldosterone or Cortisol.
(§5) Inhibition of the release of produced steroids can be used as a measure of the respective enzyme inhibition by test compounds added during the cellular enzyme assay. The dose dependent inhibition of enzymatic activity by a compound is calculated by means of plotting added inhibitor concentrations (x-axes) vs. measured steroid/product level (y-axes). The inhibition is then calculated by fitting the following 4-parameter sigmoidal function (Morgan-Mercer-Flodin (MMF) model) to the raw data points using the least squares method:
(§6) [formula] wherein, A is the maximum y value, B is the EC50 factor determined using XLFit, C is the minimum y value and D is the slope value.
(§7) EC50 values for compounds claimed herein were tested with the G402-based assay system described. Cyp11B2 enzyme activity was tested in presence of 1 μM Deoxycorticosterone and variable amounts of inhibitors; Cyp11B1 enzyme activity was tested in presence of 1 μM Deoxycortisol and variable amounts of inhibitors.

human CYP11B2 = molecular target: T2, human CYP11B2 (Homo sapiens, UniProt P19099); test: G-402 cellular enzyme assay, human CYP11B2 (aldosterone release, HTRF); assay type: cell-based; settings: G-402 cells expressing human CYP11B2; 1 μM Deoxycorticosterone
T2 construct: expressed in transfected cells
T2 sequence (P19099 25-503): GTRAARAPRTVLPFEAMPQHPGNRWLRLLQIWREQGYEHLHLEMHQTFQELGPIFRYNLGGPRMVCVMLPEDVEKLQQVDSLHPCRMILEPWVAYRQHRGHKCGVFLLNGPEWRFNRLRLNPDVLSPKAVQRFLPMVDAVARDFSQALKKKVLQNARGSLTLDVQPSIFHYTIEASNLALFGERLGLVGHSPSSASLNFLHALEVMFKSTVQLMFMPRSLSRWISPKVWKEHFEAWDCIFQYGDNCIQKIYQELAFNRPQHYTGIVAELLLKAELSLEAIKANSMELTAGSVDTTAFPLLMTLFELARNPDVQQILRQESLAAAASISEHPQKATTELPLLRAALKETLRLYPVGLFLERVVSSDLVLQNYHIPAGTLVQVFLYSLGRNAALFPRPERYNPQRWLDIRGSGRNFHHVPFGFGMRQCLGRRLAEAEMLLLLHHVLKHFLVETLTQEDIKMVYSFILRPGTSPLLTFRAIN
Description: as §1, §2, §3, §4, §5, §6, §7

| SMILES | EC50 (human CYP11B1) | EC50 (human CYP11B2) |
| --- | --- | --- |
| CN1C(=O)CCc2cc(-c3cncc(Cn4c(=O)sc5ccccc54)c3)ccc21 [Example 1, 1-Methyl-6-[5-(2-oxo-benzothiazol-3-ylmethyl)-pyridin-3-yl]-3,4-dihydro-1H-quinolin-2-one] | 177 nM | 1.4 nM |
| CN1C(=O)CCc2cc(-c3cncc(Cn4cc(F)ccc4=O)c3)ccc21 [Example 2, 6-[5-(5-Fluoro-2-oxo-2H-pyridin-1-ylmethyl)-pyridin-3-yl]-1-methyl-3,4-dihydro-1H-quinolin-2-one] | 935 nM | 18.5 nM |
| CN1C(=O)CCc2cc(-c3cncc(Cn4ccsc4=O)c3)ccc21 [Example 3, 1-Methyl-6-[5-(2-oxo-thiazol-3-ylmethyl)-pyridin-3-yl]-3,4-dihydro-1H-quinolin-2-one] | 275 nM | 3.6 nM |
| CN1C(=O)CCc2cc(-c3cncc(Cn4cccc(Cl)c4=O)c3)ccc21 [Example 4, 6-[5-(3-Chloro-2-oxo-2H-pyridin-1-ylmethyl)-pyridin-3-yl]-1-methyl-3,4-dihydro-1H-quinolin-2-one] | 1220 nM | 29.3 nM |
| CN1C(=O)CCc2cc(-c3cncc(Cn4cc(C(F)(F)F)cc(F)c4=O)c3)ccc21 [Example 5, 6-[5-(3-Fluoro-2-oxo-5-trifluoromethyl-2H-pyridin-1-ylmethyl)-pyridin-3-yl]-1-methyl-3,4-dihydro-1H-quinolin-2-one] | 1080 nM | 13.2 nM |
| CN1C(=O)CCc2cc(-c3cncc(Cn4cccc(F)c4=O)c3)ccc21 [Example 6, 6-[5-(3-Fluoro-2-oxo-2H-pyridin-1-ylmethyl)-pyridin-3-yl]-1-methyl-3,4-dihydro-1H-quinolin-2-one] | 4070 nM | 32.7 nM |
| Cc1cccc(=O)n1Cc1cncc(-c2ccc3c(c2)CCC(=O)N3C)c1 [Example 7, 1-Methyl-6-[5-(6-methyl-2-oxo-2H-pyridin-1-ylmethyl)-pyridin-3-yl]-3,4-dihydro-1H-quinolin-2-one] | 820 nM | 8.8 nM |
| Cc1ccn(Cc2cncc(-c3ccc4c(c3)CCC(=O)N4C)c2)c(=O)c1 [Example 8, 1-Methyl-6-[5-(4-methyl-2-oxo-2H-pyridin-1-ylmethyl)-pyridin-3-yl]-3,4-dihydro-1H-quinolin-2-one] | 1050 nM | 27 nM |
| CN1C(=O)CCc2cc(-c3cncc(Cn4cc(Cl)ccc4=O)c3)ccc21 [Example 9, 6-[5-(5-Chloro-2-oxo-2H-pyridin-1-ylmethyl)-pyridin-3-yl]-1-methyl-3,4-dihydro-1H-quinolin-2-one] | 516 nM | 10.5 nM |
| CN1C(=O)CCc2cc(-c3cncc(Cn4ccccc4=O)c3)ccc21 [Example 10, 1-Methyl-6-[5-(2-oxo-2H-pyridin-1-ylmethyl)-pyridin-3-yl]-3,4-dihydro-1H-quinolin-2-one] | 1230 nM | 29 nM |
| CN1C(=O)CCc2cc(-c3cncc(Cn4cccc(C(F)(F)F)c4=O)c3)ccc21 [Example 11, 1-Methyl-6-[5-(2-oxo-3-trifluoromethyl-2H-pyridin-1-ylmethyl)-pyridin-3-yl]-3,4-dihydro-1H-quinolin-2-one] | 738 nM | 18.1 nM |
| Cc1nccc(=O)n1Cc1cncc(-c2ccc3c(c2)CCC(=O)N3C)c1 [Example 12, 1-Methyl-6-[5-(2-methyl-6-oxo-6H-pyrimidin-1-ylmethyl)-pyridin-3-yl]-3,4-dihydro-1H-quinolin-2-one] | 256 nM | 7.4 nM |
| CN1C(=O)CCc2cc(-c3cncc(Cn4cccnc4=O)c3)ccc21 [Example 13, 1-Methyl-6-[5-(2-oxo-2H-pyrimidin-1-ylmethyl)-pyridin-3-yl]-3,4-dihydro-1H-quinolin-2-one] | 5570 nM | 89.2 nM |
| CN1C(=O)CCc2cc(-c3cncc(Cn4ccc(C#N)cc4=O)c3)ccc21 [Example 14, 1-[5-(1-Methyl-2-oxo-1,2,3,4-tetrahydro-quinolin-6-yl)-pyridin-3-ylmethyl]-2-oxo-1,2-dihydro-pyridine-4-carbonitrile] | 356 nM | 8.8 nM |

The next lines start with the values.

| EC50 (human CYP11B1) | EC50 (human CYP11B2) | SMILES |
| --- | --- | --- |
| 680 nM | 19.6 nM | CN1C(=O)CCc2cc(-c3cncc(Cn4cc(C(F)(F)F)ccc4=O)c3)ccc21 [Example 15, 1-Methyl-6-[5-(2-oxo-5-trifluoromethyl-2H-pyridin-1-ylmethyl)-pyridin-3-yl]-3,4-dihydro-1H-quinolin-2-one] |
| 2420 nM | 67.3 nM | CN1C(=O)CCc2cc(-c3cncc(Cn4cc(C#N)ccc4=O)c3)ccc21 [Example 16, 1-[5-(1-Methyl-2-oxo-1,2,3,4-tetrahydro-quinolin-6-yl)-pyridin-3-ylmethyl]-6-oxo-1,6-dihydro-pyridine-3-carbonitrile] |
| 363 nM | 2.2 nM | CN1C(=O)CCc2cc(-c3cncc(Cn4c(Cl)cccc4=O)c3)ccc21 [Example 17, 6-[5-(6-Chloro-2-oxo-2H-pyridin-1-ylmethyl)-pyridin-3-yl]-1-methyl-3,4-dihydro-1H-quinolin-2-one] |
| 172 nM | 4.1 nM | CN1C(=O)CCc2cc(-c3cncc(Cn4c(F)cccc4=O)c3)ccc21 [Example 18, 6-[5-(6-Fluoro-2-oxo-2H-pyridin-1-ylmethyl)-pyridin-3-yl]-1-methyl-3,4-dihydro-1H-quinolin-2-one] |
| 23.8 nM | 0.5 nM | CN1C(=O)CCc2cc(-c3cncc(Cn4cccc(F)c4=O)c3)c(F)cc21 [Example 19, 7-Fluoro-6-[5-(3-fluoro-2-oxo-2H-pyridin-1-ylmethyl)-pyridin-3-yl]-1-methyl-3,4-dihydro-1H-quinolin-2-one] |
| 506 nM | 11.6 nM | Cc1ccn(Cc2cncc(-c3cc4c(cc3F)N(C)C(=O)CC4)c2)c(=O)c1 [Example 20, 7-Fluoro-1-methyl-6-[5-(4-methyl-2-oxo-2H-pyridin-1-ylmethyl)-pyridin-3-yl]-3,4-dihydro-1H-quinolin-2-one] |
| 569 nM | 15.1 nM | CN1C(=O)CCc2cc(-c3cncc(Cn4cc(Cl)ccc4=O)c3)c(F)cc21 [Example 21, 6-[5-(5-Chloro-2-oxo-2H-pyridin-1-ylmethyl)-pyridin-3-yl]-7-fluoro-1-methyl-3,4-dihydro-1H-quinolin-2-one] |
| 7.1 nM | 0.2 nM | CN1C(=O)CCc2cc(-c3cncc(Cn4c(Cl)cccc4=O)c3)c(F)cc21 [Example 22, 6-[5-(6-Chloro-2-oxo-2H-pyridin-1-ylmethyl)-pyridin-3-yl]-7-fluoro-1-methyl-3,4-dihydro-1H-quinolin-2-one] |
| 3130 nM | 12.5 nM | Cc1cccc(=O)n1Cc1cncc(-c2cc3c(cc2F)N(C)C(=O)CC3)c1 [Example 23, 7-Fluoro-1-methyl-6-[5-(6-methyl-2-oxo-2H-pyridin-1-ylmethyl)-pyridin-3-yl]-3,4-dihydro-1H-quinolin-2-one] |
